Test results from patent US20130309224A1 (BOEHRINGER INGELHEIM INTERNATIONAL GMBH, priority 2012, published 2013).

T1: human CD37 (human, UniProt P11049 1-281, limits assumed)
T1 sequence (looked up): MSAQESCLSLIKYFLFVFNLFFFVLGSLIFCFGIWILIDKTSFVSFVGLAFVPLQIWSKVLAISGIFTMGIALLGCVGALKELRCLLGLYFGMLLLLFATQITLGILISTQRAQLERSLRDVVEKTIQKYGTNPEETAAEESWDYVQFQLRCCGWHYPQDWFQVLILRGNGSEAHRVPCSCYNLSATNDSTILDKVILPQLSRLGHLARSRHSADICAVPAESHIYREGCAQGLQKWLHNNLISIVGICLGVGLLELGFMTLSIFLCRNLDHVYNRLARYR

T2: mouse CD37 (mouse, UniProt Q61470 1-281, limits assumed)
T2 sequence (looked up): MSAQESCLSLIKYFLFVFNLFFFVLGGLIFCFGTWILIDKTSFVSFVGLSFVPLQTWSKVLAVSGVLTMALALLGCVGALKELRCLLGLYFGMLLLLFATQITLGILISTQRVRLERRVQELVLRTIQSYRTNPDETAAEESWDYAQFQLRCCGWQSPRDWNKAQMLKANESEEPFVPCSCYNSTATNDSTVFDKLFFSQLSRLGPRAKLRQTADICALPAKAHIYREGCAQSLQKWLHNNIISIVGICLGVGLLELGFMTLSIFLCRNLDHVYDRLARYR

B1: Antibody A2 (antibody, human IgG1, kappa, V domains shown)
VH: AVQLQQSGPELEKPGASVKISCKASGYSFTGYNMNWVKQNNGKSLEWIGNIDPYYGGTTYNRKFKGKATLTVDKSSSTAYMQLKSLTSEDSAVYYCARSVGPMDYWGQGTSVTVSS
VL: DIQMTQSPASLSASVGETVTITCRTSENVYSYLAWYQQKQGKSPQLLVSFAKTLAEGVPSRFSGSGSGTQFSLKISSLQPEDSGSYFCQHHSDNPWTFGGGTELEIKR
notes: also called mAb A2; MAb A2

Legend:
[1] = system: Raji Burkitt lymphoma cells; experiment: Apoptosis assay (Annexin V/PI staining, FACS) on Raji cells; format: cell-based; details: 48 h, A2 10 μg/ml, AnnexinV positive cells corrected for background
[2] = system: human follicular lymphoma (DOHH2); experiment: Example 4: DOHH2 follicular lymphoma xenograft, A2 with bendamustine, tumor volume; format: in vivo, C.B-17 scid mice
[3] = system: DoHH2 tumor cells; experiment: Example 2: DoHH2 human xenograft tumor model, A2 with bendamustine; format: in vivo, CB-17 SCID mice; details: A2 10 mg/kg twice weekly, bendamustine 10 mg/kg twice weekly ip; compared to control treated animals
[4] = system: Ramos Burkitt lymphoma cells; experiment: Apoptosis assay (Annexin V/PI staining, FACS) on Ramos cells; format: cell-based, human; details: 48 h, A2 10 μg/ml, AnnexinV positive cells corrected for background
[5] = Example 4: body weight as indicator of tolerability; details: for tolerability / body weight loss (in words): A2 10 mg/kg, bendamustine 20 mg/kg i.p.
[6] = molecular target: T1, human CD37; experiment: not described (statement in the discussion of Example 3)
[7] = molecular target: T2, mouse CD37; experiment: as above
[8] = bendamustine concentration 400 μM

Molecule	% apoptotic cells ([1]; bendamustine concentration 200 μM) [%]	% apoptotic cells [1, 8] [%]	inhibition of DOHH2 tumor growth (in words) ([2]; A2 10 mg/kg, bendamustine 20 mg/kg i.p.)	CR [x/7] ([2]; complete tumor regressions, day 16)	tumors growth inhibited (of 7 treated) ([2]; day 16) [tumors]	TGI [%] ([2]; median, day 16, vs vehicle control, A2 10 mg/kg i.p. d1,d5,d8,d12,d15, bendamustine 20 mg/kg i.p. two injections)	PR [x/7] ([2]; partial tumor regressions, day 16)	anti-tumor effect (tumor growth retardation) [3]	% apoptotic cells ([4]; bendamustine concentration 100 μM) [%]	% apoptotic cells [4, 8] [%]	tolerability / body weight loss (in words) [5]	tolerability / body weight loss (in words) ([5]; listed as Bendamustine)	body weight loss in median within the first week of treatment ([5]; bendamustine i.p. day 2 and 6)	binding result [6]	binding result [7]
Cn1c(CCCC(=O)O)nc2cc(N(CCCl)CCCl)ccc21 [bendamustine, 4-[5-[Bis(2-chloroethyl)amino]-1-methylbenzimidazol-2-yl]butanoic acid, reference compound]	10	13	significant inhibition of tumor growth	0	7	57	0	significant anti-tumor effect	19	35	moderately tolerated	resulted in weight loss	up to 7.9%	–	–
B1	–	–	–	–	–	–	–	–	–	–	–	–	–	binds	no binding
